Reference: patent US12077503B2, “Substituted cyclic amides and their use as herbicides” (FMC CORPORATION, priority 2015, dated 2024)

What was measured:
Assay in all cases: Test C preemergence
Type in all cases: in vivo
[1] = tested on: nutsedge, yellow (yellow nutsedge, Cyperus esculentus); details: for Plant response rating, Nutsedge, Yellow: scale 0 to 100, 0 no effect, 100 complete control
How it was run: (§1)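 Assessment: visual, 13–15 d after treatment, 0 (no effect) to 100 (complete control) relative to controls. Treatment: preemergence to seeds in loam-sand soil, or postemergence to 1- to 4-leaf plants in peat-based medium. Formulation: non-phytotoxic solvent mixture with surfactant.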

[2] = tested on: wheat (winter wheat, Triticum aestivum); details: for Plant response rating, Wheat: scale 0 to 100, 0 no effect, 100 complete control
How it was run: as §1

[3] = tested on: barnyardgrass (Echinochloa crus-galli); details: for Plant response rating, Barnyardgrass: scale 0 to 100, 0 no effect, 100 complete control
How it was run: as §1

[4] = tested on: ryegrass, Italian (Italian ryegrass, Lolium multiflorum); details: for Plant response rating, Ryegrass, Italian: scale 0 to 100, 0 no effect, 100 complete control
How it was run: as §1

[5] = tested on: lambsquarters (Chenopodium album); details: for Plant response rating, Lambsquarters: scale 0 to 100, 0 no effect, 100 complete control
How it was run: as §1

[6] = tested on: blackgrass (Alopecurus myosuroides); details: for Plant response rating, Blackgrass: scale 0 to 100, 0 no effect, 100 complete control
How it was run: as §1

[7] = tested on: foxtail, giant (giant foxtail, Setaria faberii); details: for Plant response rating, Foxtail, Giant: scale 0 to 100, 0 no effect, 100 complete control
How it was run: as §1

corn (Zea mays) = details: for Plant response rating, Corn: scale 0 to 100, 0 no effect, 100 complete control
How it was run: as §1

[8] = tested on: pigweed (Amaranthus retroflexus); details: for Plant response rating, Pigweed: scale 0 to 100, 0 no effect, 100 complete control
How it was run: as §1

soybean (Glycine max) = details: for Plant response rating, Soybean: scale 0 to 100, 0 no effect, 100 complete control
How it was run: as §1

[9] = tested on: morningglory (Ipomoea coccinea); details: for Plant response rating, Morningglory: scale 0 to 100, 0 no effect, 100 complete control
How it was run: as §1

[10] = tested on: johnsongrass (Sorghum halepense); details: for Plant response rating, Johnsongrass: scale 0 to 100, 0 no effect, 100 complete control
How it was run: as §1

[11] = tested on: ragweed (common ragweed, Ambrosia elatior); details: for Plant response rating, Ragweed: scale 0 to 100, 0 no effect, 100 complete control
How it was run: as §1

[12] = tested on: Galium (catchweed bedstraw, Galium aparine); details: for Plant response rating, Galium: scale 0 to 100, 0 no effect, 100 complete control
How it was run: as §1

[13] = tested on: oilseed rape (Brassica napus); details: for Plant response rating, Oilseed Rape: scale 0 to 100, 0 no effect, 100 complete control
How it was run: as §1

[14] = tested on: velvetleaf (Abutilon theophrasti); details: for Plant response rating, Velvetleaf: scale 0 to 100, 0 no effect, 100 complete control
How it was run: as §1

[15] = tested on: crabgrass, large (large crabgrass, Digitaria sanguinalis); details: for Plant response rating, Crabgrass, Large: scale 0 to 100, 0 no effect, 100 complete control
How it was run: as §1

[16] = tested on: waterhemp (common waterhemp, Amaranthus rudis); details: for Plant response rating, Waterhemp: scale 0 to 100, 0 no effect, 100 complete control
How it was run: as §1

[17] = 31 g ai/ha, 0 is no effect, 100 is complete control

Structure (SMILES): CN1CC(c2cccc(OC(F)F)c2)C(C(=O)Nc2ccccc2S(C)(=O)=O)C1=O (stereo not drawn) [Compound 523]
- Plant response rating (scale of 0 to 100), Nutsedge, Yellow [1, 17]: 0
- Plant response rating, Nutsedge, Yellow ([1]; 62 g ai/ha): 0
- Plant response rating, Nutsedge, Yellow ([1]; 125 g ai/ha): 0
- Plant response rating, Nutsedge, Yellow ([1]; 250 g ai/ha): 40
- Plant response rating (scale of 0 to 100), Wheat [2, 17]: 0
- Plant response rating, Wheat ([2]; 62 g ai/ha): 30
- Plant response rating, Wheat ([2]; 125 g ai/ha): 50
- Plant response rating, Wheat ([2]; 250 g ai/ha): 80
- Plant response rating (scale of 0 to 100), Barnyardgrass [3, 17]: 65
- Plant response rating, Barnyardgrass ([3]; 62 g ai/ha): 95
- Plant response rating, Barnyardgrass ([3]; 125 g ai/ha): 98
- Plant response rating, Barnyardgrass ([3]; 250 g ai/ha): 100
- Plant response rating (scale of 0 to 100), Ryegrass, Italian [4, 17]: 0
- Plant response rating, Ryegrass, Italian ([4]; 62 g ai/ha): 5
- Plant response rating, Ryegrass, Italian ([4]; 125 g ai/ha): 5
- Plant response rating, Ryegrass, Italian ([4]; 250 g ai/ha): 20
- Plant response rating (scale of 0 to 100), Lambsquarters [5, 17]: 20
- Plant response rating, Lambsquarters ([5]; 62 g ai/ha): 70
- Plant response rating, Lambsquarters ([5]; 125 g ai/ha): 70
- Plant response rating, Lambsquarters ([5]; 250 g ai/ha): 65
- Plant response rating (scale of 0 to 100), Blackgrass [6, 17]: 0
- Plant response rating, Blackgrass ([6]; 62 g ai/ha): 0
- Plant response rating, Blackgrass ([6]; 125 g ai/ha): 20
- Plant response rating, Blackgrass ([6]; 250 g ai/ha): 90
- Plant response rating (scale of 0 to 100), Foxtail, Giant [7, 17]: 85
- Plant response rating, Foxtail, Giant ([7]; 62 g ai/ha): 90
- Plant response rating, Foxtail, Giant ([7]; 125 g ai/ha): 98
- Plant response rating, Foxtail, Giant ([7]; 250 g ai/ha): 98
- Plant response rating (scale of 0 to 100), Corn (corn (Zea mays); [17]): 0
- Plant response rating, Corn (corn (Zea mays); 62 g ai/ha): 20
- Plant response rating, Corn (corn (Zea mays); 125 g ai/ha): 65
- Plant response rating, Corn (corn (Zea mays); 250 g ai/ha): 85
- Plant response rating (scale of 0 to 100), Pigweed [8, 17]: 75
- Plant response rating, Pigweed ([8]; 62 g ai/ha): 100
- Plant response rating, Pigweed ([8]; 125 g ai/ha): 90
- Plant response rating, Pigweed ([8]; 250 g ai/ha): 90
- Plant response rating (scale of 0 to 100), Soybean (soybean (Glycine max); [17]): 10
- Plant response rating, Soybean (soybean (Glycine max); 62 g ai/ha): 25
- Plant response rating, Soybean (soybean (Glycine max); 125 g ai/ha): 30
- Plant response rating, Soybean (soybean (Glycine max); 250 g ai/ha): 45
- Plant response rating (scale of 0 to 100), Morningglory [9, 17]: 20
- Plant response rating, Morningglory ([9]; 62 g ai/ha): 35
- Plant response rating, Morningglory ([9]; 125 g ai/ha): 25
- Plant response rating, Morningglory ([9]; 250 g ai/ha): 35
- Plant response rating (scale of 0 to 100), Johnsongrass [10, 17]: 0
- Plant response rating, Johnsongrass ([10]; 62 g ai/ha): 30
- Plant response rating, Johnsongrass ([10]; 125 g ai/ha): 60
- Plant response rating, Johnsongrass ([10]; 250 g ai/ha): 70
- Plant response rating (scale of 0 to 100), Ragweed [11, 17]: 5
- Plant response rating, Ragweed ([11]; 62 g ai/ha): 15
- Plant response rating, Ragweed ([11]; 125 g ai/ha): 40
- Plant response rating, Ragweed ([11]; 250 g ai/ha): 70
- Plant response rating (scale of 0 to 100), Galium [12, 17]: 0
- Plant response rating, Galium ([12]; 62 g ai/ha): 80
- Plant response rating, Galium ([12]; 125 g ai/ha): 80
- Plant response rating, Galium ([12]; 250 g ai/ha): 80
- Plant response rating (scale of 0 to 100), Oilseed Rape [13, 17]: 0
- Plant response rating, Oilseed Rape ([13]; 62 g ai/ha): 0
- Plant response rating, Oilseed Rape ([13]; 125 g ai/ha): 30
- Plant response rating, Oilseed Rape ([13]; 250 g ai/ha): 60
- Plant response rating (scale of 0 to 100), Velvetleaf [14, 17]: 0
- Plant response rating, Velvetleaf ([14]; 62 g ai/ha): 0
- Plant response rating, Velvetleaf ([14]; 125 g ai/ha): 30
- Plant response rating, Velvetleaf ([14]; 250 g ai/ha): 45
- Plant response rating (scale of 0 to 100), Crabgrass, Large [15, 17]: 90
- Plant response rating, Crabgrass, Large ([15]; 62 g ai/ha): 95
- Plant response rating, Crabgrass, Large ([15]; 125 g ai/ha): 100
- Plant response rating, Crabgrass, Large ([15]; 250 g ai/ha): 98
- Plant response rating (scale of 0 to 100), Waterhemp [16, 17]: 55
- Plant response rating, Waterhemp ([16]; 62 g ai/ha): 65
- Plant response rating, Waterhemp ([16]; 125 g ai/ha): 65
- Plant response rating, Waterhemp ([16]; 250 g ai/ha): 80
